The text below walks through data of patent US12398154B2, “Azaquinazoline pan-KRas inhibitors” (Mirati Therapeutics, Inc., priority 2020, dated 2025).

A word on the IC50: it is the concentration at which inhibition is half-maximal.

One assay concerns the target KRas G12D (Homo sapiens, UniProt P01116, G12D). Description: biochemical.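 Note: TR-FRET displacement binding assay on KRas, read after a one-hour incubation at room temperature, IC50 fitted from percent-of-control values.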
A further assay has as its target KRas G12V (Homo sapiens, UniProt P01116, G12V). Description: biochemical.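 Note: KRas binding measured by TR-FRET displacement at room temperature, IC50 fitted from percent of control values.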
For another assay, the target named is KRas G12R (Homo sapiens, UniProt P01116, G12R). Description: biochemical.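 Note: TR-FRET displacement assay of compound binding to KRas, read after one hour at room temperature, potency from a four-parameter fit of percent-of-control values.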
Another assay relates to pERK in MKN1 cells. Description: Inhibition of KRas phosphorylation of ERK (Cisbio HTRF pERK assay). Conditions: Homo sapiens, MKN-1, 3 h, read-out: Inhibition (HTRF IC50) of KRas-mediated Phosphorylation of ERK, MKN1. A general note: Time-resolved FRET reads energy transfer from a long-lived donor to a nearby acceptor.
In a further assay the test system is pERK in PSN1 cells. The assay is described as above. Conditions: Homo sapiens, PSN1, 3 h, read-out: Inhibition (HTRF IC50) of KRas-mediated Phosphorylation of ERK, PSN1.
For a further assay, the system named is pERK in ASPC1 cells. The description is as above. Conditions: Homo sapiens, ASPC1, read-out: Inhibition (HTRF IC50) of KRas-mediated Phosphorylation of ERK, AsPC-1.
Another assay has as its system pERK in H727 cells. The description is as above. Conditions: Homo sapiens, NCI-H727, read-out: Inhibition (HTRF IC50) of KRas-mediated Phosphorylation of ERK, H727.

SMILES strings stand for the structures. Where only a bound is given, the exact number is not on record here.

Chain of KRas G12D (P01116 1-169 isoform P01116-2 G12D): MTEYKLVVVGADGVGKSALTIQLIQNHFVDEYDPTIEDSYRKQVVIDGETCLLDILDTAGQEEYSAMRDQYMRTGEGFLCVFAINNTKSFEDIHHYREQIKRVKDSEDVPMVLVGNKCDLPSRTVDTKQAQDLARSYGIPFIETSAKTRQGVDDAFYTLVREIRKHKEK
Chain of KRas G12V (P01116 1-169 isoform P01116-2 G12V): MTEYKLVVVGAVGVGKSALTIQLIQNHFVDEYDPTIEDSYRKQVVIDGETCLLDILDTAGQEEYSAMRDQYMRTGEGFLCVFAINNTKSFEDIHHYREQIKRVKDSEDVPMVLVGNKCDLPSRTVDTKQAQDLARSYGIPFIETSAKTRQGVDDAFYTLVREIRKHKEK
Chain of KRas G12R (P01116 1-169 isoform P01116-2 G12R): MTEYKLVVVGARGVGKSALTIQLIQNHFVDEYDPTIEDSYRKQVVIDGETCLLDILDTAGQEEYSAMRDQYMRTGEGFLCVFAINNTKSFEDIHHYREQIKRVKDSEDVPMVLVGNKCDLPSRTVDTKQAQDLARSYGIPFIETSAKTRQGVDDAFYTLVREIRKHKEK

As for `C#Cc1c(F)ccc2cc(O)cc(-c3ncc4c(N5CCCC6(CNC(=O)N6)C5)nc(OC[C@@]56CCCN5C[C@H](F)C6)nc4c3F)c12` (stereo partly drawn) [Example 395, 7-(7-(8-ethynyl-7-fluoro-3-hydroxynaphthalen-1-yl)-8-fluoro-2-(((2R,7aS)-2-fluorohexahydro-1H-pyrrolizin-7a-yl)methoxy)pyrido[4,3-d]pyrimidin-4-yl)-1,3,7-triazaspiro[4.5]decan-2-one], the IC50 against KRas G12D was at most 2 nM; on KRas G12V it was at most 2 nM; against KRas G12R, at most 2 nM; in the assay on pERK in MKN1 cells, 299 nM; in the assay with pERK in PSN1 cells, at least 10000 nM; in the assay on pERK in ASPC1 cells it was 477 nM. Besides, the IC50 with pERK in H727 cells was found to be 1380 nM.
Consider `C#Cc1c(F)ccc2cc(O)cc(-c3ncc4c(N5CCCC6(CNS(=O)(=O)N6)C5)nc(OC[C@@]56CCCN5C[C@H](F)C6)nc4c3F)c12` (stereo partly drawn) [Example 396, 7-(7-(8-ethynyl-7-fluoro-3-hydroxynaphthalen-1-yl)-8-fluoro-2-(((2R,7aS)-2-fluorohexahydro-1H-pyrrolizin-7a-yl)methoxy)pyrido[4,3-d]pyrimidin-4-yl)-2-thia-1,3,7-triazaspiro[4.5]decane 2,2-dioxide], for which the IC50 is at most 2 nM against KRas G12D; 3 nM on KRas G12V; 3 nM against KRas G12R; 525 nM in the assay on pERK in MKN1 cells; at least 10000 nM with pERK in PSN1 cells; 3080 nM with pERK in ASPC1 cells. The IC50 in the assay on pERK in H727 cells was 7480 nM.
In the case of `O=C1NCC12CCCN(c1nc(OC[C@@]34CCCN3C[C@H](F)C4)nc3c(F)c(-c4cc(O)cc5ccc(F)c(Br)c45)ncc13)C2` (stereo partly drawn) [Example 406, 6-(7-(8-bromo-7-fluoro-3-hydroxynaphthalen-1-yl)-8-fluoro-2-(((2R,7aS)-2-fluorohexahydro-1H-pyrrolizin-7a-yl)methoxy)pyrido[4,3-d]pyrimidin-4-yl)-2,6-diazaspiro[3.5]nonan-1-one], the IC50 on KRas G12D is 4 nM; on KRas G12V, 5 nM; at KRas G12R, 11 nM; in the assay on pERK in MKN1 cells, 306 nM; in the assay with pERK in PSN1 cells, at least 10000 nM; in the assay on pERK in ASPC1 cells, 880 nM. Besides, the IC50 in the assay with pERK in H727 cells is 748 nM.
For `Nc1cc2n(n1)CCCN(c1nc(OC[C@@]34CCCN3C[C@H](F)C4)nc3c(F)c(-c4cc(O)cc5ccc(F)c(Br)c45)ncc13)C2` [Example 408, 4-(4-(2-amino-7,8-dihydro-4H-pyrazolo[1,5-a][1,4]diazepin-5(6H)-yl)-8-fluoro-2-(((2R,7aS)-2-fluorohexahydro-1H-pyrrolizin-7a-yl)methoxy)pyrido[4,3-d]pyrimidin-7-yl)-5-bromo-6-fluoronaphthalen-2-ol], the IC50 was at most 2 nM against KRas G12D; at most 2 nM at KRas G12V; at most 2 nM against KRas G12R; 351 nM in the assay on pERK in MKN1 cells; at least 10000 nM in the assay with pERK in PSN1 cells; 721 nM in the assay with pERK in ASPC1 cells. Moreover, the IC50 with pERK in H727 cells was 570 nM.
As to `O=C1NC(=O)C2CN(c3nc(OC[C@@]45CCCN4C[C@H](F)C5)nc4c(F)c(-c5cc(O)cc6ccc(F)c(Cl)c56)ncc34)CC12` (stereo partly drawn) [Example 423, 5-(7-(8-chloro-7-fluoro-3-hydroxynaphthalen-1-yl)-8-fluoro-2-(((2R,7aS)-2-fluorohexahydro-1H-pyrrolizin-7a-yl)methoxy)pyrido[4,3-d]pyrimidin-4-yl)tetrahydropyrrolo[3,4-c]pyrrole-1,3(2H,3aH)-dione], the IC50 against KRas G12D was at most 2 nM; against KRas G12V, at most 2 nM; against KRas G12R, at most 2 nM; with pERK in MKN1 cells, 110 nM; with pERK in PSN1 cells, at least 10000 nM; in the assay with pERK in ASPC1 cells, 556 nM. The IC50 in the assay with pERK in H727 cells turned out to be 2220 nM.
Consider `O=C1NCC12CCCN(c1nc(OC[C@@]34CCCN3C[C@H](F)C4)nc3c(F)c(-c4cc(O)cc5ccc(F)c(Cl)c45)ncc13)C2` (stereo partly drawn) [Example 424, 6-(7-(8-chloro-7-fluoro-3-hydroxynaphthalen-1-yl)-8-fluoro-2-(((2R,7aS)-2-fluorohexahydro-1H-pyrrolizin-7a-yl)methoxy)pyrido[4,3-d]pyrimidin-4-yl)-2,6-diazaspiro[3.5]nonan-1-one], for which the IC50 is 3 nM against KRas G12D; 4 nM against KRas G12V; 8 nM on KRas G12R; 95 nM in the assay with pERK in MKN1 cells; 2820 nM in the assay on pERK in PSN1 cells; 817 nM in the assay on pERK in ASPC1 cells. Besides, the IC50 in the assay on pERK in H727 cells turned out to be 1300 nM.
For `Nc1cc2n(n1)CCCN(c1nc(OC[C@@]34CCCN3C[C@H](F)C4)nc3c(F)c(-c4cc(O)cc5ccc(F)c(Cl)c45)ncc13)C2` [Example 426, 4-(4-(2-amino-7,8-dihydro-4H-pyrazolo[1,5-a][1,4]diazepin-5(6H)-yl)-8-fluoro-2-(((2R,7aS)-2-fluorohexahydro-1H-pyrrolizin-7a-yl)methoxy)pyrido[4,3-d]pyrimidin-7-yl)-5-chloro-6-fluoronaphthalen-2-ol], the IC50 on KRas G12D was at most 2 nM; at KRas G12V it was at most 2 nM; against KRas G12R it was at most 2 nM; in the assay on pERK in MKN1 cells, 264 nM; in the assay with pERK in PSN1 cells, at least 10000 nM; in the assay with pERK in ASPC1 cells, 652 nM. The half-inhibitory concentration (IC50) with pERK in H727 cells was determined as 1220 nM.
Regarding `CCc1c(F)ccc2cc(O)cc(-c3ncc4c(N5CCCC6(C5)C[S+]([O-])C6)nc(OC[C@@]56CCCN5C[C@H](F)C6)nc4c3F)c12` (stereo partly drawn) [Example 484, 6-(7-(8-ethyl-7-fluoro-3-hydroxynaphthalen-1-yl)-8-fluoro-2-(((2R,7aS)-2-fluorohexahydro-1H-pyrrolizin-7a-yl)methoxy)pyrido[4,3-d]pyrimidin-4-yl)-2-thia-6-azaspiro[3.5]nonane 2-oxide], the 50% inhibitory concentration (IC50) against KRas G12D is 23 nM; against KRas G12V, 28 nM; against KRas G12R, 48 nM; in the assay with pERK in MKN1 cells, 1060 nM; in the assay on pERK in PSN1 cells it was at least 10000 nM; with pERK in ASPC1 cells it was 4860 nM. In the assay with pERK in H727 cells, the IC50 is 3030 nM.
Take `CCc1c(F)ccc2cc(O)cc(-c3ncc4c(N5C[C@H](O)CC[C@H](O)C5)nc(OC[C@@]56CCCN5C[C@H](F)C6)nc4c3F)c12` [Example 491, (3R,6S)-1-(7-(8-ethyl-7-fluoro-3-hydroxynaphthalen-1-yl)-8-fluoro-2-(((2R,7aS)-2-fluorohexahydro-1H-pyrrolizin-7a-yl)methoxy)pyrido[4,3-d]pyrimidin-4-yl)azepane-3,6-diol]: the IC50 against KRas G12D is 4 nM; against KRas G12V, 4 nM; against KRas G12R it was 6 nM; with pERK in MKN1 cells it was 182 nM; in the assay on pERK in PSN1 cells, at least 10000 nM; in the assay with pERK in ASPC1 cells, 1700 nM. The IC50 in the assay on pERK in H727 cells stood at 1530 nM.
For the compound `CCc1c(F)ccc2cc(O)cc(-c3ncc4c(N5CCOCC6(CCOCC6)C5)nc(OC[C@@]56CCCN5C[C@H](F)C6)nc4c3F)c12` [Example 500, 5-ethyl-6-fluoro-4-(8-fluoro-2-(((2R,7aS)-2-fluorohexahydro-1H-pyrrolizin-7a-yl)methoxy)-4-(3,8-dioxa-11-azaspiro[5.6]dodecan-11-yl)pyrido[4,3-d]pyrimidin-7-yl)naphthalen-2-ol], the IC50 is 235 nM against KRas G12D; 104 nM against KRas G12V; 103 nM against KRas G12R; 239 nM in the assay with pERK in MKN1 cells; at least 10000 nM in the assay on pERK in PSN1 cells; 1100 nM with pERK in ASPC1 cells. Besides, the IC50 in the assay with pERK in H727 cells stood at 1900 nM.
On to `CCc1c(F)ccc2cc(O)cc(-c3ncc4c(N5CCCOC(C)(C)C5)nc(OC[C@@]56CCCN5C[C@H](F)C6)nc4c3F)c12` [Example 501, 4-(4-(2,2-dimethyl-1,4-oxazepan-4-yl)-8-fluoro-2-(((2R,7aS)-2-fluorohexahydro-1H-pyrrolizin-7a-yl)methoxy)pyrido[4,3-d]pyrimidin-7-yl)-5-ethyl-6-fluoronaphthalen-2-ol], for which the IC50 against KRas G12D is 606 nM; against KRas G12V, 169 nM; at KRas G12R, 176 nM; with pERK in MKN1 cells, 225 nM; in the assay with pERK in PSN1 cells, at least 10000 nM; in the assay on pERK in ASPC1 cells, 2060 nM. The IC50 with pERK in H727 cells amounted to 3230 nM.
`CCc1c(F)ccc2cc(O)cc(-c3ncc4c(N5CCOC6(CCS(=O)(=O)CC6)C5)nc(OC[C@@]56CCCN5C[C@H](F)C6)nc4c3F)c12` [Example 502, 4-(7-(8-ethyl-7-fluoro-3-hydroxynaphthalen-1-yl)-8-fluoro-2-(((2R,7aS)-2-fluorohexahydro-1H-pyrrolizin-7a-yl)methoxy)pyrido[4,3-d]pyrimidin-4-yl)-1-oxa-9-thia-4-azaspiro[5.5]undecane 9,9-dioxide]: the IC50 was 638 nM at KRas G12D; 457 nM at KRas G12V; 607 nM on KRas G12R; 1940 nM in the assay with pERK in MKN1 cells; at least 10000 nM in the assay with pERK in PSN1 cells; 2100 nM in the assay with pERK in ASPC1 cells. Also, in the assay on pERK in H727 cells, the IC50 amounted to 6460 nM.
With `CCc1c(F)ccc2cc(O)cc(-c3ncc4c(N5CCOC6(CCS(=N)(=O)CC6)C5)nc(OC[C@@]56CCCN5C[C@H](F)C6)nc4c3F)c12` (stereo partly drawn) [Example 503, 4-(7-(8-ethyl-7-fluoro-3-hydroxynaphthalen-1-yl)-8-fluoro-2-(((2R,7aS)-2-fluorohexahydro-1H-pyrrolizin-7a-yl)methoxy)pyrido[4,3-d]pyrimidin-4-yl)-9-imino-1-oxa-9-thia-4-azaspiro[5.5]undecane 9-oxide], the IC50 against KRas G12D was 305 nM; on KRas G12V it was 82 nM; against KRas G12R, 124 nM; with pERK in MKN1 cells, at least 10000 nM; in the assay on pERK in PSN1 cells it was at least 10000 nM; in the assay with pERK in ASPC1 cells, at least 10000 nM. For the same compound, in the assay with pERK in H727 cells, the IC50 is at least 10000 nM.
